Active and inactive are the calls of the source. No cut-off for these calls is given here.
How the values were obtained:
[1] = test system: BEAS-2B; test: Cytotoxicity against human BEAS-2B cells assessed as reduction in cell viability incubated for 72 hrs by sulforhodamine B assay; type: cell-based
[2] = test system: PC-9; test: Cell cycle arrest in human PC-9 cells assessed as accumulation at G0/G1 phase at 5 uM measured after 48 hrs by propidium iodide staining based flow cytometry (reference value: 30.67 to 31.96%); type: functional
[3] = test system: PC-9; test: Cell cycle arrest in human PC-9 cells assessed as accumulation at S phase at 5 uM measured after 48 hrs by propidium iodide staining based flow cytometry (reference value: 52.95 to 53.28%); type: functional
[4] = test system: PC-9; test: Cell cycle arrest in human PC-9 cells assessed as accumulation at G2/M phase at 5 uM measured after 48 hrs by propidium iodide staining based flow cytometry (reference value: 15.09 to 16.04%); type: functional
[5] = test system: NCI-H157; test: Cell cycle arrest in human NCI-H157 cells assessed as accumulation at G0/G1 phase at 5 uM measured after 48 hrs by propidium iodide staining based flow cytometry (reference value: 56.53 to 56.73%); type: functional
[6] = test system: NCI-H157; test: Cell cycle arrest in human NCI-H157 cells assessed as accumulation at S phase at 5 uM measured after 48 hrs by propidium iodide staining based flow cytometry (reference value: 26.33 to 26.84%); type: functional
[7] = test system: NCI-H157; test: Cell cycle arrest in human NCI-H157 cells assessed as accumulation at G2/M phase at 5 uM measured after 48 hrs by propidium iodide staining based flow cytometry (reference value: 16.62 to 16.94%); type: functional
[8] = test system: PC-9; test: Induction of apoptosis in human PC-9 cells assessed as early apoptotic cells at 5 uM measured after 48 hrs by Annexin V-FITC/propidium iodide staining based flow cytometry (reference value: 2.55 to 2.8%); type: functional
[9] = test system: PC-9; test: Induction of apoptosis in human PC-9 cells assessed as late apoptotic cells at 5 uM measured after 48 hrs by Annexin V-FITC/propidium iodide staining based flow cytometry (reference value: 5.5 to 6.9%); type: functional
[10] = test system: NCI-H157; test: Induction of apoptosis in human NCI-H157 cells assessed as early apoptotic cells at 5 uM measured after 48 hrs by Annexin V-FITC/propidium iodide staining based flow cytometry (reference value: 1 to 1.1%); type: functional
[11] = test system: NCI-H157; test: Induction of apoptosis in human NCI-H157 cells assessed as late apoptotic cells at 5 uM measured after 48 hrs by Annexin V-FITC/propidium iodide staining based flow cytometry (reference value: 1.95 to 2.1%); type: functional
[12] = test system: NCI-H157; test: Antiproliferative activity against human NCI-H157 cells assessed as reduction in cell viability measured after 72 hrs by sulforhodamine B assay; type: functional, cell-based; details: NCI-H157, 72 h
[13] = test system: A549; test: Antiproliferative activity against human A549 cells assessed as reduction in cell viability measured after 72 hrs by sulforhodamine B assay; type: functional, cell-based; details: A549, 72 h
[14] = test system: NCI-H1703; test: Antiproliferative activity against human NCI-H1703 cells assessed as reduction in cell viability incubated for 72 hrs by sulforhodamine B assay; type: functional, cell-based; details: NCI-H1703, 72 h
[15] = test system: NCI-H1299; test: Antiproliferative activity against human NCI-H1299 cells assessed as reduction in cell viability incubated for 72 hrs by sulforhodamine B assay; type: functional, cell-based; details: NCI-H1299, 72 h
[16] = test system: NCI-H460; test: Antiproliferative activity against human NCI-H460 cells assessed as reduction in cell viability incubated for 72 hrs by sulforhodamine B assay; type: functional, cell-based; details: NCI-H460, 72 h
[17] = test system: PC-9; test: Antiproliferative activity against human PC-9 cells assessed as reduction in cell viability incubated for 72 hrs by sulforhodamine B assay; type: functional, cell-based; details: PC-9, 72 h
[18] = test system: U-87 MG; test: Antiproliferative activity against human U-87MG cells assessed as reduction in cell viability incubated for 72 hrs by sulforhodamine B assay; type: functional, cell-based, U-87MG ATCC
[19] = test system: U-251; test: Antiproliferative activity against human U-251 cells assessed as reduction in cell viability incubated for 72 hrs by sulforhodamine B assay; type: functional, cell-based; details: U-251, 72 h
[20] = test system: PC-9; test: Induction of apoptosis in human PC-9 cells assessed as viable cells at 5 uM measured after 48 hrs by Annexin V-FITC/propidium iodide staining based flow cytometry (reference value: 90.9%); type: functional; details: read-out: Activity
[21] = test system: PC-9; test: Induction of apoptosis in human PC-9 cells assessed as necrotic cells at 5 uM measured after 48 hrs by Annexin V-FITC/propidium iodide staining based flow cytometry (reference value: 0.8%); type: functional
[22] = test system: NCI-H157; test: Induction of apoptosis in human NCI-H157 cells assessed as viable cells at 5 uM measured after 48 hrs by Annexin V-FITC/propidium iodide staining based flow cytometry (reference value: 94.3%); type: functional; details: read-out: Activity
[23] = test system: NCI-H157; test: Induction of apoptosis in human NCI-H157 cells assessed as necrotic cells at 5 uM measured after 48 hrs by Annexin V-FITC/propidium iodide staining based flow cytometry (reference value: 2.5%); type: functional
[24] = test system: PC-9; test: Induction of apoptosis in human PC-9 cells assessed as downregulation of Bcl-2 protein expression at 2 to 5 uM incubated for 24 hrs by western blot analysis; type: functional, cell-based; details: dose 2-5 µM
[25] = test system: PC-9; test: Induction of apoptosis in human PC-9 cells assessed as upregulation of Bax protein expression at 2 to 5 uM incubated for 24 hrs by western blot analysis; type: functional, cell-based; details: dose 2-5 µM
[26] = test system: PC-9; test: Induction of apoptosis in human PC-9 cells assessed as induction of PARP cleavage at 2 to 5 uM incubated for 24 hrs by western blot analysis; type: functional, cell-based; details: dose 2-5 µM
[27] = test system: NCI-H157; test: Induction of apoptosis in human NCI-H157 cells assessed as downregulation of Bcl-2 protein expression at 2 to 5 uM incubated for 24 hrs by western blot analysis; type: functional, cell-based; details: dose 2-5 µM
[28] = test system: NCI-H157; test: Induction of apoptosis in human NCI-H157 cells assessed as upregulation of Bax protein expression at 2 to 5 uM incubated for 24 hrs by western blot analysis; type: functional, cell-based; details: dose 2-5 µM
[29] = test system: NCI-H157; test: Induction of apoptosis in human NCI-H157 cells assessed as induction of PARP cleavage at 2 to 5 uM incubated for 24 hrs by western blot analysis; type: functional, cell-based; details: dose 2-5 µM
[30] = test system: PC-9; test: Inhibition of glycolysis in human PC-9 cells assessed as reduction in extracellular glucose consumption at 5 uM incubated for 24 hrs; type: functional, cell-based
[31] = test system: PC-9; test: Inhibition of glycolysis in human PC-9 cells assessed as reduction in lactate release at 5 uM incubated for 24 hrs; type: functional, cell-based
[32] = test system: NCI-H157; test: Inhibition of glycolysis in human NCI-H157 cells assessed as reduction in extracellular glucose consumption at 5 uM incubated for 24 hrs; type: functional, cell-based
[33] = test system: NCI-H157; test: Inhibition of glycolysis in human NCI-H157 cells assessed as reduction in lactate release at 5 uM incubated for 24 hrs; type: functional, cell-based
[34] = test system: PC-9; test: Inhibition of glycolysis in human PC-9 cells assessed as downregulation of HK2 protein expression at 2 to 5 uM incubated for 24 hrs by western blot analysis; type: functional, cell-based; details: dose 2-5 µM
[35] = test system: PC-9; test: Inhibition of glycolysis in human PC-9 cells assessed as downregulation of PKM2 protein expression at 2 to 5 uM incubated for 24 hrs by western blot analysis; type: functional, cell-based; details: dose 2-5 µM
[36] = test system: NCI-H157; test: Inhibition of glycolysis in human NCI-H157 cells assessed as downregulation of HK2 protein expression at 2 to 5 uM incubated for 24 hrs by western blot analysis; type: functional, cell-based; details: dose 2-5 µM
[37] = test system: NCI-H157; test: Inhibition of glycolysis in human NCI-H157 cells assessed as downregulation of PKM2 protein expression at 2 to 5 uM incubated for 24 hrs by western blot analysis; type: functional, cell-based; details: dose 2-5 µM
[38] = test system: A549; test: Antiproliferative activity against human A549 cells assessed as cell viability at 50 uM measured after 72 hrs by sulforhodamine B assay; type: functional; details: read-out: Activity
[39] = test system: NCI-H157; test: Antiproliferative activity against human NCI-H157 cells assessed as cell viability at 50 uM measured after 72 hrs by sulforhodamine B assay; type: functional; details: read-out: Activity

- IC50 [12]: 2.9 µM
- IC50 [13]: 3.3 µM
- IC50 [14]: 3.6 µM
- IC50 [15]: 2.7 µM
- IC50 [16]: 2.3 µM
- IC50 [17]: 2.1 µM
- IC50 [18]: 10.4 µM
- IC50 [19]: 4.5 µM
Compound: CC1(C)CC[C@H](O)[C@@]2(C)[C@H]1CC=C1C(=O)OC[C@@]12O
- IC50 [1]: 6.3 µM
- Activity [2]: 55.77%
- Activity [3]: 22.97%
- Activity [4]: 20.29%
- Activity [5]: 47.83%
- Activity [6]: 36.68%
- Activity [7]: 15.21%
- Activity [8]: 5.7%
- Activity [9]: 32.1%
- Activity [10]: 6.1%
- Activity [11]: 18.15%
- viability at 5 µM [20]: 38.1%
- Activity [21]: 23.4%
- viability at 5 µM [22]: 70.7%
- Activity [23]: 4.9%
- Activity [24]: Active
- Activity [25]: Active
- Activity [26]: Active
- Activity [27]: Active
- Activity [28]: Active
- Activity [29]: Active
- inhibition [30]: Active
- inhibition [31]: Active
- inhibition [32]: Active
- inhibition [33]: Active
- inhibition [34]: Active
- inhibition [35]: Active
- inhibition [36]: Active
- inhibition [37]: Active
- viability at 50 µM [38]: < 50%
- viability at 50 µM [39]: < 50%

— ChEMBL document CHEMBL4732255, “Evaluation of the antiproliferative activity of 106 marine microbial metabolites against human lung cancer cells and potential antiproliferative mechanism of purpuride G” (Bioorg Med Chem Lett, 2021)
